Results: ChEMBL document CHEMBL6096651, “Synthesis, evaluation and mechanism study of novel pyrazole enamides to alleviate lung injury” (Eur J Med Chem, 2025)
Active and inactive are the calls of the source. The rule behind the calls is not given here.

Columns and labels:
[1] = test system: RAW264.7; test: Anti-inflammatory activity against LPS-induced mouse RAW264.7 cells assessed as increase in NRF2 nuclear translocation by laser confocal scanning microscopic analysis; format: functional, cell-based
[2] = test system: RAW264.7; test: Activation of Nrf2/HO-1 signalling pathway in LPS-induced mouse RAW264.7 cells assessed as induction of Nrf2 nuclear translocation at 2 uM; format: cell-based; settings: filed as activator
[3] = test system: RAW264.7; test: Anti-inflammatory activity against LPS-induced mouse RAW264.7 cells assessed as inhibition of IL-1beta mRNA level at 2 uM preincubated with compound for 1 hr followed by LPS-induction and measured after 4 to 24 hrs by RT-qPCR analysis; format: functional, cell-based; settings: time 5-25 hrs
[4] = test system: RAW264.7; test: Anti-inflammatory activity against LPS-induced mouse RAW264.7 cells assessed as inhibition of TNF-alpha mRNA level at 2 uM preincubated with compound for 1 hr followed by LPS-induction and measured after 4 to 24 hrs by RT-qPCR analysis; format: functional, cell-based; settings: time 5-25 hrs
[5] = test system: RAW264.7; test: Anti-inflammatory activity against LPS-induced mouse RAW264.7 cells assessed as inhibition of IL-1beta mRNA level at 10 uM preincubated with compound for 1 hr followed by LPS-induction and measured after 4 to 24 hrs by RT-qPCR analysis; format: functional; settings: time 5-25 hrs
[6] = test system: RAW264.7; test: Anti-inflammatory activity against LPS-induced mouse RAW264.7 cells assessed as inhibition of IL-6 mRNA level at 10 uM preincubated with compound for 1 hr followed by LPS-induction and measured after 4 to 24 hrs by RT-qPCR analysis; format: functional; settings: time 5-25 hrs
[7] = test system: RAW264.7; test: Cytotoxicity against mouse RAW264.7 cells at 10 uM by CCK-8 assay; format: functional, cell-based
[8] = test system: RAW264.7; test: Anti-inflammatory activity against LPS-induced mouse RAW264.7 cells assessed as inhibition of IL-6 mRNA level preincubated with compound for 1 hr followed by LPS-induction and measured after 4 to 24 hrs by RT-qPCR analysis; format: functional, cell-based; settings: dose 10-50 µM, time 5-25 hrs
[9] = test system: RAW264.7; test: Anti-inflammatory activity against LPS-induced mouse RAW264.7 cells assessed as inhibition of IL-1beta mRNA level preincubated with compound for 1 hr followed by LPS-induction and measured after 4 to 24 hrs by RT-qPCR analysis; format: functional, cell-based; settings: dose 10-50 µM, time 5-25 hrs
[10] = test system: RAW264.7; test: Anti-inflammatory activity against LPS-induced mouse RAW264.7 cells assessed as inhibition of TNF-alpha mRNA level preincubated with compound for 1 hr followed by LPS-induction and measured after 4 to 24 hrs by RT-qPCR analysis; format: functional, cell-based; settings: dose 10-50 µM, time 5-25 hrs
[11] = Toxicity in C57BL/6 mouse assessed as reduction in body weight at 15 to 60 mg/kg, po administered for 7 days; format: organism-based; settings: in vivo, 168 h, dose 15-60 mg/kg, time 7 day
[12] = test system: RAW264.7; test: Anti-inflammatory activity against LPS-induced mouse RAW264.7 cells assessed as inhibition of IL-6 level incubated for 24 hrs by ELISA analysis; format: functional, cell-based; settings: RAW264.7, 24 h
[13] = test system: Mus musculus; test: Anti-inflammatory activity against PM2.5-induced lung injury C57BL/6 mouse model assessed as reduction in number of cells in BALF at 15 to 60 mg/kg, po administered for 7 days; format: functional, organism-based; settings: dose 15-60 mg/kg, time 7.0 day
[14] = test system: Mus musculus; test: Anti-inflammatory activity against PM2.5-induced lung injury C57BL/6 mouse model assessed as reduction in WBC cells in peripheral blood at 15 to 60 mg/kg, po administered for 7 days; format: functional, organism-based; settings: dose 15-60 mg/kg, time 7.0 day
[15] = test system: Mus musculus; test: Anti-inflammatory activity against PM2.5-induced lung injury C57BL/6 mouse model assessed as lung particle aggregation at 15 to 60 mg/kg, po administered for 7 days by H and E staining based analysis; format: functional, organism-based; settings: dose 15-60 mg/kg, time 7.0 day
[16] = test system: Mus musculus; test: Anti-inflammatory activity against PM2.5-induced lung injury C57BL/6 mouse model assessed as infiltration of inflammatory cells at 15 to 60 mg/kg, po administered for 7 days by H and E staining based analysis; format: functional, organism-based; settings: dose 15-60 mg/kg, time 7.0 day
[17] = test system: Mus musculus; test: Anti-inflammatory activity against PM2.5-induced lung injury C57BL/6 mouse model assessed as pulmonary alveoli collapse at 15 to 60 mg/kg, po administered for 7 days by H and E staining based analysis; format: functional, organism-based; settings: dose 15-60 mg/kg, time 7.0 day
[18] = test system: Mus musculus; test: Anti-inflammatory activity against PM2.5-induced lung injury C57BL/6 mouse model assessed as decrease in collagen formation in lung at 15 to 60 mg/kg, po administered for 7 days by Masson staining based analysis; format: functional, organism-based; settings: dose 15-60 mg/kg, time 7.0 day
[19] = test system: Mus musculus; test: Anti-inflammatory activity against PM2.5-induced lung injury C57BL/6 mouse model assessed as decrease in LY6G expression in lung at 15 to 60 mg/kg, po administered for 7 days by IHC analysis; format: functional, organism-based; settings: dose 15-60 mg/kg, time 7.0 day
[20] = test system: Mus musculus; test: Anti-inflammatory activity against PM2.5-induced lung injury C57BL/6 mouse model assessed as decrease in iNOS expression in lung at 15 to 60 mg/kg, po administered for 7 days by IHC analysis; format: functional, organism-based; settings: dose 15-60 mg/kg, time 7.0 day
[21] = test system: Mus musculus; test: Anti-inflammatory activity against PM2.5-induced lung injury C57BL/6 mouse model assessed as increase in Arg-1 level in lung at 15 to 60 mg/kg, po administered for 7 days by IHC analysis; format: functional, organism-based; settings: dose 15-60 mg/kg, time 7.0 day
[22] = test system: NCI-H292; test: Anti-inflammatory activity against EGF-induced human NCI-H292 cells assessed as decrease in MUC5AC mRNA expression at 20 to 50 uM by RT-qPCR analysis; format: functional, cell-based; settings: dose 20-50 µM
[23] = test system: Mus musculus; test: Anti-inflammatory activity against PM2.5-induced lung injury C57BL/6 mouse model assessed as inhibition of mucin expression in lung at 15 to 60 mg/kg, po administered for 7 days by AB-PAS staining based analysis; format: functional, organism-based; settings: dose 15-60 mg/kg, time 7.0 day
[24] = Toxicity in C57BL/6 mouse assessed as liver damage at 15 to 60 mg/kg, po administered for 7 days by H and E staining based analysis; format: organism-based; settings: in vivo, 168 h, dose 15-60 mg/kg, time 7 day
[25] = Toxicity in C57BL/6 mouse assessed as pathological changes in kidney at 15 to 60 mg/kg, po administered for 7 days by H and E staining based analysis; format: organism-based; settings: in vivo, 168 h, dose 15-60 mg/kg, time 7 day
[26] = test system: RAW264.7; test: Upregulation of Nrf2 mRNA level in LPS-induced mouse RAW264.7 cells at 10 to 50 uM; format: functional, cell-based; settings: dose 10-50 µM
[27] = test system: RAW264.7; test: Upregulation of HO-1 mRNA level in LPS-induced mouse RAW264.7 cells at 10 to 50 uM; format: functional, cell-based; settings: dose 10-50 µM
[28] = test system: RAW264.7; test: Upregulation of Keap1 mRNA level in LPS-induced mouse RAW264.7 cells at 10 to 50 uM; format: functional, cell-based; settings: dose 10-50 µM
[29] = test system: RAW264.7; test: Activation of Nrf2-Keap1-HO-1 signaling pathway in mouse RAW264.7 cells assessed as upregulation of HO-1 expression at 10 to 50 uM by Western blot analysis; format: cell-based; settings: filed as activator, dose 10-50 µM
[30] = test system: RAW264.7; test: Activation of Nrf2-Keap1-HO-1 signaling pathway in mouse RAW264.7 cells assessed as upregulation of P62 expression at 10 to 50 uM by Western blot analysis; format: cell-based; settings: filed as activator, dose 10-50 µM
[31] = test system: RAW264.7; test: Anti-inflammatory activity against LPS-induced mouse RAW264.7 cells assessed as inhibition of IL-1beta mRNA level at 20 uM preincubated with compound for 1 hr followed by LPS-induction and measured after 4 to 24 hrs by RT-qPCR analysis; format: functional, cell-based; settings: time 5-25 hrs
[32] = test system: RAW264.7; test: Anti-inflammatory activity against LPS-induced mouse RAW264.7 cells assessed as inhibition of TNF-alpha mRNA level at 20 uM preincubated with compound for 1 hr followed by LPS-induction and measured after 4 to 24 hrs by RT-qPCR analysis; format: functional, cell-based; settings: time 5-25 hrs
[33] = test system: RAW264.7; test: Activation of Nrf2/HO-1 signalling pathway in LPS-induced mouse RAW264.7 cells assessed as induction of Nrf2 nuclear translocation at 20 uM; format: cell-based; settings: filed as activator
[34] = test system: RAW264.7; test: Activation of Nrf2/HO-1 signalling pathway in LPS-induced mouse RAW264.7 cells assessed as induction of Nrf2 nuclear translocation at 20 uM in presence of KI696; format: cell-based; settings: filed as activator

COc1cc([C@@H](CC(=O)O)c2ccc(C)c(CN3C[C@@H](C)Oc4ccccc4S3(=O)=O)c2)cc2nnn(C)c12
Activity [1]: Active | Activity [2]: Active | Activity [3]: Active | Activity [4]: Active

Cc1ccccc1-c1cc(C(=O)N(C)/C=C\c2ccccc2)n(-c2ccc(C(F)(F)F)cc2)n1
inhibition at 10 µM [5]: 95.8%

COc1ccc(-n2nc(C(=O)N(C)/C=C\c3ccccc3)cc2C(C)(C)C)cc1
inhibition at 10 µM [5]: 94.7%

CN(/C=C\c1ccccc1)C(=O)c1cc(-c2ccc(C(F)(F)F)cc2)nn1-c1ccc(C(F)(F)F)cc1
inhibition at 10 µM [5]: 93.5%

CN(/C=C\c1ccccc1)C(=O)/C=C/c1ccccc1 [LANSIUMAMIDE B]
inhibition at 10 µM [6]: 73.4% | inhibition at 10 µM [5]: 18%

CN(/C=C\c1ccccc1)C(=O)c1cc(-c2ccccc2Cl)nn1-c1ccc(C(F)(F)F)cc1
inhibition at 10 µM [6]: 53.9% | inhibition at 10 µM [5]: 97.1%

Cc1ccc(-n2nc(C(=O)N(C)/C=C\c3ccccc3)cc2C(C)(C)C)cc1
Activity [7]: Active

CN(/C=C\c1ccccc1)C(=O)c1cc(-c2ccccc2F)nn1-c1ccc(C(F)(F)F)cc1
inhibition at 10 µM [6]: 50.2% | inhibition at 10 µM [5]: 96.5%

CN(/C=C\c1ccccc1)C(=O)c1cc(-c2ccccc2)nn1-c1ccc(C(F)(F)F)cc1
inhibition at 10 µM [5]: 94.5%

Cc1ccc(-c2cc(C(=O)N(C)/C=C\c3ccccc3)n(-c3ccc(C(F)(F)F)cc3)n2)cc1
inhibition at 10 µM [5]: 91.1%

CN(/C=C\c1ccccc1)C(=O)c1cc(C(C)(C)C)n(-c2ccc(F)cc2)n1
inhibition at 10 µM [6]: 60.3% | inhibition at 10 µM [5]: 96% | Activity [8]: Dose-dependent-effect | Activity [9]: Dose-dependent-effect | Activity [10]: Dose-dependent-effect | Activity [11]: Non-toxic | IC50 [12]: 4.82 µM | Activity [13]: Active | Activity [14]: Active | Activity [15]: Active | Activity [16]: Active | Activity [17]: Active | Activity [18]: Active | Activity [19]: Active | Activity [20]: Active | Activity [21]: Active | Activity [22]: Active | Activity [23]: Active | Activity [24]: Non-toxic | Activity [25]: Non-toxic | Activity [26]: Active | Activity [27]: Active | Activity [28]: Active | Activity [29]: Active | Activity [30]: Active | Activity [1]: Active | Activity [31]: Active | Activity [32]: Active | Activity [33]: Active | Activity [34]: Active

CN(/C=C\c1ccccc1)C(=O)c1cc(-c2ccccc2C(F)(F)F)nn1-c1ccc(C(F)(F)F)cc1
inhibition at 10 µM [5]: 96%

Cc1cccc(-c2cc(C(=O)N(C)/C=C\c3ccccc3)n(-c3ccc(C(F)(F)F)cc3)n2)c1
inhibition at 10 µM [6]: 49.5% | inhibition at 10 µM [5]: 9.84%
